Data: a compilation of properties of binary mixtures (doi:10.1021/je990135o)

Assay: excess molar enthalpy (molar enthalpy of mixing); xn = mol fraction of the nth substance listed
Conditions: 100 kPa

CCCCOCCO + CCOC(=O)OCC
298.15 K
Conditions	excess molar enthalpy [kJ/mol]
x2 = 0.043	0.168
x2 = 0.0431	0.159
x2 = 0.0824	0.318
x2 = 0.0827	0.296
x2 = 0.1188	0.448
x2 = 0.1191	0.41
x2 = 0.2123	0.742
x2 = 0.2129	0.681
x2 = 0.265	0.8
x2 = 0.3503	1.06
x2 = 0.351	0.959
x2 = 0.4181	1.16
x2 = 0.4189	1.05
x2 = 0.5196	1.12
x2 = 0.6138	1.12
x2 = 0.618	1.24
x2 = 0.6832	1.18
x2 = 0.7639	1.03
x2 = 0.7644	0.95
x2 = 0.8118	0.911
x2 = 0.8123	0.846
x2 = 0.8661	0.723
x2 = 0.8665	0.665
x2 = 0.8961	0.596
x2 = 0.8964	0.56
x2 = 0.9228	0.248
x2 = 0.9283	0.444
x2 = 0.9285	0.416

CCCCOCCOCCO + CCOC(=O)OCC
Conditions	excess molar enthalpy [kJ/mol]
298.15 K, x2 = 0.0553	0.091
298.15 K, x2 = 0.1047	0.181
298.15 K, x2 = 0.1493	0.251
298.15 K, x2 = 0.1896	0.332
298.15 K, x2 = 0.2598	0.445
298.15 K, x2 = 0.3188	0.523
298.15 K, x2 = 0.4125	0.63
298.15 K, x2 = 0.4834	0.69
298.15 K, x2 = 0.584	0.736
298.15 K, x2 = 0.6781	0.734
298.15 K, x2 = 0.8081	0.628
298.15 K, x2 = 0.8488	0.549
298.15 K, x2 = 0.8939	0.437
298.15 K, x2 = 0.9182	0.37
298.15 K, x2 = 0.944	0.268
298.15 K, x2 = 0.9712	0.149
313.15 K, x2 = 0.1043	0.218
313.15 K, x2 = 0.1488	0.311
313.15 K, x2 = 0.3179	0.625
313.15 K, x2 = 0.4114	0.733
313.15 K, x2 = 0.4823	0.809
313.15 K, x2 = 0.583	0.858
313.15 K, x2 = 0.6772	0.854
313.15 K, x2 = 0.7366	0.806
313.15 K, x2 = 0.8075	0.716
313.15 K, x2 = 0.8935	0.501
313.15 K, x2 = 0.9179	0.407
313.15 K, x2 = 0.9438	0.299
313.15 K, x2 = 0.9711	0.164

CCOCCO + CCOC(=O)OCC
Conditions	excess molar enthalpy [kJ/mol]
298.15 K, x2 = 0.0322	0.094
298.15 K, x2 = 0.0624	0.181
298.15 K, x2 = 0.1175	0.335
298.15 K, x2 = 0.1666	0.46
298.15 K, x2 = 0.2104	0.57
298.15 K, x2 = 0.2855	0.714
298.15 K, x2 = 0.4442	0.931
298.15 K, x2 = 0.5454	0.979
298.15 K, x2 = 0.7057	0.924
298.15 K, x2 = 0.8275	0.712
298.15 K, x2 = 0.8648	0.607
298.15 K, x2 = 0.9056	0.466
313.15 K, x2 = 0.0321	0.117
313.15 K, x2 = 0.0623	0.222
313.15 K, x2 = 0.0906	0.315
313.15 K, x2 = 0.1173	0.398
313.15 K, x2 = 0.2099	0.662
313.15 K, x2 = 0.285	0.831
313.15 K, x2 = 0.3469	0.946
313.15 K, x2 = 0.4436	1.07
313.15 K, x2 = 0.5447	1.13
313.15 K, x2 = 0.6146	1.13
313.15 K, x2 = 0.7052	1.06
313.15 K, x2 = 0.8271	0.808
313.15 K, x2 = 0.8645	0.692
313.15 K, x2 = 0.9054	0.518
313.15 K, x2 = 0.9503	0.3
